Assay [1] concerns senior dogs. The assay is described as follows: Actiwatch activity recording, Example 2 (melatonin only, cross-over, AM or PM). The assay is classed as in vivo, dog. Particulars: for Total Daytime Activity Counts: melatonin only, mean +/- std error. Here is the method:
Using a cross-over design, all animals were administered a control placebo and a treatment supplement containing melatonin. The animals were senior animals, dogs greater than 10 years of age. There were 4 males and 4 females in each group. For the intervention phases (phases 2 and 4), all animals were administered melatonin in the AM or PM. During the control and cross-over phases (phase 1 and 3, respectively) the animals were administered a placebo comprising methylcellulose contained in a gel capsule in the AM or PM, as appropriate. Each phase lasted 35 days. Starting on day 29 of each phase, the animals locomotor behavioral activity was monitored for 4 consecutive days. The placebo consisted of the carrier (methylcellulose) contained in a gel capsule and was provided during the control phases (Phases 1 and 3) either with the AM or PM feeding, as appropriate to complement the supplement time (luring the following intervention phase. For example, placebo in AM during phase 1, then supplement in AM during phase 2. For phase 2, the first supplement treatment phase, the animals were given supplements of melatonin. Further, for half of the animals, the supplements were in the morning with the AM feeding and half were given in the evening with the PM feeding. Thus, of the 4 males, 2 were administered the melatonin in the morning and two in the evening. During phase 3, the second control phase, delivery of the methylcellulose in a gel capsule was provided either with the AM or PM feeding, as appropriate to cross-over the treatment from phase 1-2. For phase 4, the second supplement treatment phase, the procedure was exactly the same as phase 2, except that for a given animal the supplementation time was switched from phase 2. Thus, if male was administered melatonin in the morning with the AM feeding in phase 2, the male was administered melatonin in the evening with the PM feeding in phase 4. Data analysis of periods indicated no period effect. Therefore, all control data were compiled into a single dataset, as well as all treatment data for each supplement time (AM or PM). Statistical analysis was based on AM control vs. AM treatment, and PM control vs. PM Treatment. Twenty-four hour activity rhythms were assessed for 5 consecutive days and 5 nights for Example 1 or 3 consecutive days and 4 nights for Example 2 using the Actiwatch method (Mini-Mitter® Actiwatch-16® activity monitoring system, Respironics Co. Inc., Bend, Oreg.). The Actiwatch® was placed inside a specially designed animal case and attached to a collar around the dog's neck. The dogs were allowed to follow their usual patterns of activity, test, exercise, and feeding. Daytime activity was recorded to represent the 12 hour light phase from 7 am to 7 pm. […]

In assay [2] the test system is senior dogs. The assay is described as follows: Actiware sleep analysis, Example 2 (melatonin only, cross-over, AM or PM). The assay is classed as in vivo, dog. Particulars: for Nap Duration / Total Daytime Naps / Total Daytime Sleep Minutes / Total Night-Time Awakenings / Total Night-Time Wake Minutes: melatonin only, mean +/- std error. Here is the method: Using a cross-over design, all animals were administered a control placebo and a treatment supplement containing melatonin. The animals were senior animals, dogs greater than 10 years of age. There were 4 males and 4 females in each group. For the intervention phases (phases 2 and 4), all animals were administered melatonin in the AM or PM. During the control and cross-over phases (phase 1 and 3, respectively) the animals were administered a placebo comprising methylcellulose contained in a gel capsule in the AM or PM, as appropriate.
Each phase lasted 35 days. Starting on day 29 of each phase, the animals locomotor behavioral activity was monitored for 4 consecutive days.
The placebo consisted of the carrier (methylcellulose) contained in a gel capsule and was provided during the control phases (Phases 1 and 3) either with the AM or PM feeding, as appropriate to complement the supplement time (luring the following intervention phase. For example, placebo in AM during phase 1, then supplement in AM during phase 2.
For phase 2, the first supplement treatment phase, the animals were given supplements of melatonin. Further, for half of the animals, the supplements were in the morning with the AM feeding and half were given in the evening with the PM feeding. Thus, of the 4 males, 2 were administered the melatonin in the morning and two in the evening.
During phase 3, the second control phase, delivery of the methylcellulose in a gel capsule was provided either with the AM or PM feeding, as appropriate to cross-over the treatment from phase 1-2.
For phase 4, the second supplement treatment phase, the procedure was exactly the same as phase 2, except that for a given animal the supplementation time was switched from phase 2. Thus, if male was administered melatonin in the morning with the AM feeding in phase 2, the male was administered melatonin in the evening with the PM feeding in phase 4.
Data analysis of periods indicated no period effect. Therefore, all control data were compiled into a single dataset, as well as all treatment data for each supplement time (AM or PM). Statistical analysis was based on AM control vs. AM treatment, and PM control vs. PM Treatment.
Twenty-four hour activity rhythms were assessed for 5 consecutive days and 5 nights for Example 1 or 3 consecutive days and 4 nights for Example 2 using the Actiwatch method (Mini-Mitter® Actiwatch-16® activity monitoring system, Respironics Co. Inc., Bend, Oreg.). The Actiwatch® was placed inside a specially designed animal case and attached to a collar around the dog's neck. The dogs were allowed to follow their usual patterns of activity, test, exercise, and feeding.
The Actiware® software was used to generate total daily, light phase (12-h daytime: 7 am-7 pm), and dark phase (12-h night-time: 7 PM-7 AM) total sleep or wake minutes. Light phase naps represent sleep bouts occurring during the 12-h light phase interval. Dark phase wake bouts relied awake activity during the night-time sleep interval and not the 12-h dark phase interval. Total number of bouts and bout duration were determined for both light phase naps and dark phase awakenings.
The total number of sleep minutes recorded during the daytime phase of Example 2 was used to calculate the number of nap bouts and average nap duration during this same period.

As for `COc1ccc2[nH]cc(CCNC(C)=O)c2c1` [Melatonin Only, melatonin], in assay [1] (AM Supplement), the “Total Daytime Activity Counts” value is listed as 115,705 +/− 23,249. Besides, the “Total Daytime Activity Counts” value in assay [1] (PM Supplement, 1 mg/kg BW, 35 days) was 114,816 +/− 34,282. For the same compound, the “reduction in total daytime activity counts compared to dogs on the control food” value in assay [1] (PM, melatonin 1 mg/kg BW, 35 days, not statistically significant) is 16%. Moreover, the “daytime activity effect versus placebo group” value in assay [1] (melatonin supplemented in the AM) was “not significantly different from the placebo group”. In assay [2] (AM Supplement), the “Nap Duration” value is on record as 4.2 +/− 0.7, the “Total Daytime Naps” value is 58.3 +/− 3.5, the “Total Daytime Sleep Minutes” value was found to be 240 ± 32 min and the “Total Night-Time Awakenings” value is reported as 69.5 +/− 6.9. Moreover, the “Total Night-Time Wake Minutes” value in assay [2] (AM Supplement) is 198 ± 35 min. Besides, in assay [2] (PM Supplement), the “Nap Duration” value is recorded as 6.4 +/− 1.2, the “Total Daytime Naps” value is recorded as 45.5 +/− 4.7, the “Total Daytime Sleep Minutes” value came out at 264 ± 28 min and the “Total Night-Time Awakenings” value was 52.6 +/− 5.7. Further, in assay [2] (PM Supplement), the “Total Night-Time Wake Minutes” value stood at 209 ± 37 min. Also, the “increase in total daytime sleep minutes compared to dogs on the control food” value in assay [2] (PM, melatonin 1 mg/kg BW, 35 days, not statistically significant (p=0.25)) is reported as 21%. For the same compound, the “decrease in total number of awakenings during the sleep phase compared to the control group” value in assay [2] (melatonin alone with the PM meal) is recorded as 22%. Further, in assay [2] (melatonin with the AM meal), the “decrease in average nap length compared to control group” value is reported as 31%, the “increase in the number of awakenings compared to control group” value came out at 16.6% and the “increase in the number of naps compared to control group” value came to 10%. In assay [2] (melatonin with the AM meal, not different from control data), the “increase in night-time wake minutes compared to control group” value was determined as 41%. For the same compound, in assay [2] (melatonin with the PM meal), the “total number of naps during the 12 hour daytime phase compared to the control group” value is “did not change at all”. Also, the “increase in average nap duration compared to the control group” value in assay [2] (melatonin with the PM meal, 12 hour daytime phase) turned out to be 18.5%. Moreover, the “decrease in total night-time wake minutes compared to the control group” value in assay [2] (melatonin with the PM meal, not statistically significant) amounted to 18.6%.

Source of the values: US20130273176A1, “METHODS AND COMPOSITIONS USEFUL FOR PROMOTING SLEEP IN ANIMALS” (Nestec SA, priority 2010, published 2013).
